Reference: patent US7101915B1, “P-terphenyl compounds” (Shionogi & Co., Ltd., priority 1996, dated 2006)

Legend:
Format in all cases: cell-based
[1] = system: C3H/HeN mouse splenocytes stimulated with Concanavalin A (Con A); assay: Suppressive effect on mitogenic activity of mouse splenocytes in vitro, Con A as mitogen (MTT); details: Con A 5 μg/ml as mitogen, 3 days
Method: (§1) Experiment 1 Suppressive Effect on a Mitogenic Activity of Mouse Splenocytes In Vitro
(§2) In 96-well microtiter plate 5×10^5 C3H/HeN mouse splenocytes suspended in 0.1 ml of 10% fetal bovine serum-fortified RPMI 1640 medium containing 2 mM of sodium bicarbonate, 50 units/ml of penicillin, 50 μg/ml of streptomycin and 5×10^−5 M of 2-mercaptoethanol were added. Then, 5 μg/ml of Concanavalin A (Con A) or 10 μg/ml of lipopolysaccharide (LPS) as a mitogen and the compound of a pre-determined concentration of the present invention were added to each well so that a final volume of each well reached 0.2 ml. Each compound of the present invention was dissolved in dimethylsulfoxide (DMSO) and diluted with the above RPMI 1640 medium to adjust the final concentration of 100 ng/ml or less. The splenocytes in the 96-well microtiter plate were cultivated at 37° C. for 3 days in an incubator keeping the humidity 100%, carbon dioxide 5% and air 95%. Then, 25 μl of 6 mg/ml MTT [3-(4,5-dimethylthiazol-2-yl)-2,5-diphenyltetrazolium bromide] (Sigma) was added to the each well and cultivated at 37° C. for 4 hours under the same conditions. After the cultivation, 50 μl of 0.02 N hydrochloric acid in 20% sodium dodecyl sulfate (SDS) was added to formazan generated and left at 37° C. for 24 hours for dissolving formazan. An absorption intensity (OD) of formazan generated in proportion to the number of living cells was measured with an immunoreader (InterMed) equipped with a 570 nm filter (The Journal of Immunological Method, 65, 55-63, 1983). The 50% inhibitory concentration of a cell proliferation (IC 50) was calculated from a correlation between the concentration of the compound of the present invention and the absorption intensity.

[2] = system: C3H/HeN mouse splenocytes stimulated with lipopolysaccharide (LPS); assay: Suppressive effect on mitogenic activity of mouse splenocytes in vitro, LPS as mitogen (MTT); details: LPS 10 μg/ml as mitogen, 3 days
Method: as §1, §2

[3] = system: mouse thymoma strain EL4 cells; assay: Anti-proliferative activity on EL4 cells (MTT); details: 3 days
Method: Experiment 2 Anti-Proliferative Activity on EL4 Cells
In 96-well microtiter plate 4×10^4/0.1 ml of mouse thymoma strain EL4 cells were added and 0.1 ml of the compound of the present invention was added to the mixture so that the concentration was in the range of 0-5,000 ng/ml. After the cultivation for 3 days, the IC50 was calculated by the MTT method as described in Experiment 1.

[4] = system: IgE antibody production of human peripheral lymphocytes (anti-human CD 40, IL-4, IL-10); assay: Suppressive effect on the antibody production of human lymphocytes: IgE; details: 10 days, ELISA
Method: (§3) Experiment 5 Suppressive Effect on the Antibody Production of Human Lymphocytes
(§4) 1) Human Peripheral Blood
(§5) Human peripheral blood was drawn from healthy male adults by plastic syringes filled with heparin (final concentration 1.5%). Lymphocytes were collected immediately after blood was drawn.
RPMI medium (Nissui Pharmaceutical Co., Ltd.) containing 10% fetal bovine serum (HyClone Lab.) inactivated at 56° C. for 30 minutes, penicillin (100 units/ml) and streptomycin (100 μg/ml) (GIBCO) was used.
After the compound (I-839) of the present invention was dissolved in dimethylsulfoxide (Nakaraitesk) at […], the solution was diluted with the medium to adjust a final concentration to be 0.01 μg/ml −10 μg/ml. […]
(§6) In 96-well cultivating plate (Sumitomo bakelite) the lymphocytes were inoculated 2×10^5 cells per well, and the compound, anti-human CD 40 antigen (Pharmingen, 2 μg/ml), human recombinant interleukin-4 (IL-4) (Genzyme, 0.1 μg/ml) and human recombinant interleukin-10 (IL-10) (Genzyme, 0.2 μg/ml) were added and cultivated at 37° C. under 5% of CO2 (0.2 ml/well). After the cultivation for 10 days, the amount of antibody in a supernatant was quantified by ELISA method.
6) Quantification of the IgE Antibody
A commercial kit MESACUP IgE test (Medical & Biological Laboratories Co., Ltd.) was used for the quantification of the IgE. […]

[5] = system: IgG production of human peripheral lymphocytes; assay: Suppressive effect on the antibody production of human lymphocytes: IgG; details: 10 days, ELISA
Method: as §3, §4, §5
(§7) RPMI medium (Nissui Pharmaceutical Co., Ltd.) containing 10% fetal bovine serum (HyClone Lab.) inactivated at 56° C. for 30 minutes, penicillin (100 units/ml) and streptomycin (100 μg/ml) (GIBCO) was used. […]
as §6
(§8) 7) Quantification of the IgG and IgM Antibodies
(§9) ELISA method was used for the quantification. […] After washing three times with PBST, 100 μl of a sample diluted with PBS or 100 μl of human Plasma IgG standard solution or IgM standard solution (BioPur AG, Switzerland) of a pre-determined concentration was added and incubated at room temperature for 1 hour. […]

[6] = system: IgM production of human peripheral lymphocytes; assay: Suppressive effect on the antibody production of human lymphocytes: IgM; details: 10 days, ELISA
Method: as §3, §4, §5, §7, §6, §8, §9

EL-4 IC50 [3]: 0.8 ng/mL | IC50 IgE [4]: <0.0001 ng/mL | IC50 IgG [5]: <0.0001 ng/mL | IC50 IgM [6]: >1 ng/mL
Compound: COc1cc(-c2ccc(O)cc2)c(OC)c(O)c1-c1ccc(OCC=C(Cl)Cl)c(O)c1 [Compound I-121]
ConA IC50 [1]: 0.8 ng/mL | LPS IC50 [2]: 1.2 ng/mL
